Laboratory results as given in ChEMBL document CHEMBL1141686, “Discovery of a novel class of PPARdelta partial agonists” (Bioorg Med Chem Lett, 2008).

Target: T1, Peroxisome proliferator-activated receptor alpha (Homo sapiens, UniProt Q07869)
T1 sequence (Q07869 whole entry): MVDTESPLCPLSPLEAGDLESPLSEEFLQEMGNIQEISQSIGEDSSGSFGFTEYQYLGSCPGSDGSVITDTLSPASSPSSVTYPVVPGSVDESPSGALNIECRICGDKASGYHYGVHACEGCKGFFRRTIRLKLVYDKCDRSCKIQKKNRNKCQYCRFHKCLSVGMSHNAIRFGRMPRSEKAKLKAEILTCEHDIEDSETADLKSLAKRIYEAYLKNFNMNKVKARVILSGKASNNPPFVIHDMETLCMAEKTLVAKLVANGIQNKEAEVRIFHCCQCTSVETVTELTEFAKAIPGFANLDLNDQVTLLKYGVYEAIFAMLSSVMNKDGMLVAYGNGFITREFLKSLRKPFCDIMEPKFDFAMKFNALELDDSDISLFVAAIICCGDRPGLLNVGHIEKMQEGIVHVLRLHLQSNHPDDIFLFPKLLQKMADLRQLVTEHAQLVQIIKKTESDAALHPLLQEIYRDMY

**Q.** With `COc1ccc2c(ccn2S(=O)(=O)c2cccc(C(=O)Nc3ccc(C)cc3C(=O)O)c2)c1` as the compound, how does the IC50 read?
**A.** The IC50 was 7.94 µM.

**Q.** `Cc1ccc(NC(=O)c2cccc(S(=O)(=O)n3ccc4c(C)cccc43)c2)c(C(=O)O)c1` was tested. Which IC50 did it give?
**A.** Its IC50 is 1 µM.

**Q.** How did the IC50 turn out when `Cc1cccc(NC(=O)c2cccc(S(=O)(=O)N3CCc4ccccc4C3)c2)c1C(=O)O` was run?
**A.** Its IC50 is > 10 µM.

**Q.** `COc1ccc2ccn(S(=O)(=O)c3cccc(C(=O)Nc4ccc(Cl)cc4C(=O)O)c3)c2c1` was tested. Which IC50 did it give?
**A.** The IC50 was 1.58 µM.

**Q.** With `Cc1cccc(C(=O)O)c1NC(=O)c1cccc(S(=O)(=O)N2CCc3ccccc3C2)c1` as the compound, how does the IC50 read?
**A.** The IC50 was > 10 µM.

**Q.** Which IC50 does the source give for `Cc1ccc(NC(=O)c2cccc(S(=O)(=O)n3ccc4cc(C)ccc43)c2)c(C(=O)O)c1` here?
**A.** Its IC50 is 1 µM.

**Q.** How did the IC50 turn out when `Cc1ccc(NC(=O)c2cccc(S(=O)(=O)n3ccc4ccc(Cl)cc43)c2)c(C(=O)O)c1` was run?
**A.** The IC50 was 3.16 µM.

**Q.** With `COc1cccc2ccn(S(=O)(=O)c3cccc(C(=O)Nc4ccc(C)cc4C(=O)O)c3)c12` as the compound, how does the IC50 read?
**A.** Its IC50 is > 10 µM.

**Q.** `Cc1ccc(NC(=O)c2cccc(S(=O)(=O)n3ccc4cccc(C)c43)c2)c(C(=O)O)c1` was tested. Which IC50 did it give?
**A.** Its IC50 is 1.58 µM.

**Q.** For `COc1ccc2ccn(S(=O)(=O)c3cccc(C(=O)Nc4ccc(C)cc4C(=O)O)c3)c2c1`, which IC50 is on record?
**A.** Its IC50 is 3.98 µM.

**Q.** `COc1ccc2c(ccn2S(=O)(=O)c2cccc(C(=O)Nc3ccc(Cl)cc3C(=O)O)c2)c1` was tested. Which IC50 did it give?
**A.** The IC50 was 3.16 µM.

**Q.** For `O=C(O)COc1cccc2c1CCN(S(=O)(=O)c1cccc(C(=O)Nc3ccc(Cl)cc3C(=O)O)c1)C2`, which IC50 is on record?
**A.** Its IC50 is 5.01 µM.

**Q.** Which IC50 does the source give for `COc1cccc2c1ccn2S(=O)(=O)c1cccc(C(=O)Nc2ccc(Cl)cc2C(=O)O)c1` here?
**A.** The IC50 was 0.794 µM.

**Q.** `Cc1ccc(NC(=O)c2cccc(S(=O)(=O)n3ccc4cccc(Cl)c43)c2)c(C(=O)O)c1` was tested. Which IC50 did it give?
**A.** The IC50 was 3.16 µM.

**Q.** How did the IC50 turn out when `COc1cccc2c1ccn2S(=O)(=O)c1cccc(C(=O)Nc2ccc(C)cc2C(=O)O)c1` was run?
**A.** Its IC50 is 1.26 µM.
